Reference: patent publication US20260130933A1, “PHARMACEUTICAL COMPOSITION FOR PREVENTION OR TREATMENT OF NEPHROPATHY AND/OR DIABETES MELLITUS, COMPRISING ENAVOGLIFLOZIN” (DAEWOONG PHARMACEUTICAL CO., LTD., priority 2022, published 2026)

What was measured:
[1] = Example 5: renal function-related safety, changes in eGFR in the phase 3 trials of Examples 1 to 3; format: in vivo, human; set-up: eGFR, change from baseline: unit not given here; settings: for eGFR: in mL/min/1.73m2 (unit assumed)
Excerpt: In phase 3 clinical trials of Examples 1 to 3, the changes in eGFR as an indicator of renal function-related safety were confirmed.

Pharmacokinetics (Tmax) = format: in vivo; settings: blood, oral
[2] = Phase 2 clinical trial, blood glucose lowering vs placebo; format: in vivo, human; settings: 0.1 mg, 0.3 mg and 0.5 mg groups
[3] = Example 6: phase 1 trial, 0.5 mg enavogliflozin in type 2 diabetes patients grouped by eGFR: urinary glucose excretion (UGE) and eGFR; format: in vivo, human
Experimental: The subjects were divided into the following four groups according to eGFR values, and urinary glucose excretion (UGE) and eGFR were estimated according to the administration of 0.5 mg of enavogliflozin as the test drug (stages 1 and 3: repeated administration (1 week), stages 2 and 4: single administration).

[4] = Example 7: SD rats treated with streptozotocin (diabetic nephropathy model), oral once a day for 12 weeks: urinary albumin, GS score, TA score; format: in vivo
Experimental: Accordingly, 60 mg/kg of streptozotocin was administered intravenously to the SD rats and used as an animal model of diabetic nephropathy.

[5] = Week 6, Example 2 (combination therapy with metformin)
[6] = Week 6, Example 3 (combination therapy with metformin/gemigliptin)
[7] = Week 12, Example 2 (combination therapy with metformin)
[8] = Week 12, Example 3 (combination therapy with metformin/gemigliptin)
[9] = Week 18, Example 2 (combination therapy with metformin)
[10] = Week 18, Example 3 (combination therapy with metformin/gemigliptin)
[11] = Week 24, Example 2 (combination therapy with metformin)
[12] = Week 24, Example 3 (combination therapy with metformin/gemigliptin)
[13] = week 6, Example 2 (combination therapy with metformin)
[14] = week 6, Example 3 (combination therapy with metformin/gemigliptin)
[15] = week 12, Example 2 (combination therapy with metformin)
[16] = week 12, Example 3 (combination therapy with metformin/gemigliptin)
[17] = week 18, Example 2 (combination therapy with metformin)
[18] = week 18, Example 3 (combination therapy with metformin/gemigliptin)
[19] = week 24, Example 2 (combination therapy with metformin)
[20] = week 24, Example 3 (combination therapy with metformin/gemigliptin)

Row | Structure (SMILES) | eGFR [1, 5] | eGFR [1, 6] | eGFR [1, 7] | eGFR [1, 8] | eGFR [1, 9] | eGFR [1, 10] | eGFR [1, 11] | eGFR [1, 12] | eGFR, change from baseline [1, 13] | eGFR, change from baseline [1, 14] | eGFR, change from baseline [1, 15] | eGFR, change from baseline [1, 16] | eGFR, change from baseline [1, 17] | eGFR, change from baseline [1, 18] | eGFR, change from baseline [1, 19] | eGFR, change from baseline [1, 20] | further results
1 | CCOc1ccc(Cc2cc([C@@H]3O[C@H](CO)[C@@H](O)[C@H](O)[C@H]3O)ccc2Cl)cc1 [Dapagliflozin, reference compound] | 92.123 | 90.5384 | 92.274 | 89.8198 | 94.828 | 90.9546 | 93.739 | 91.6344 | −1.908 | −1.1439 | −1.559 | −1.7177 | 0.897 | 0.0571 | −0.193 | 0.5790 | 
2 | OC[C@H]1O[C@@H](c2cc(Cc3ccc(C4CC4)cc3)c(Cl)c3c2CCO3)[C@H](O)[C@@H](O)[C@@H]1O [Enavogliflozin, (2S,3R,4R,5S,6R)-2-(7-chloro-6 (4-cyclopropylbenzyl)-2,3-dihydrobenzofuran-4-yl)-6-(hydroxymethyl)tetrahydro-2H-pyran-3,4,5-triol] | 88.574 | 89.3847 | 90.566 | 92.0995 | 88.185 | 89.9269 | 88.056 | 91.9246 | 0.425 | 1.9291 | 2.488 | 0.9308 | 0.105 | −1.3048 | −0.024 | 0.7726 | eGFR ([1]; Week 6, Example 1 (monotherapy)): 88.464; eGFR ([1]; Week 12, Example 1 (monotherapy)): 90.142; eGFR ([1]; Week 18, Example 1 (monotherapy)): 91.088; eGFR ([1]; Week 24, Example 1 (monotherapy)): 91.387; Change in eGFR (renal function-related safety) ([1]; phase 3 trials of Examples 1 to 3): no significant change in eGFR; eGFR, change from baseline ([1]; week 6, Example 1 (monotherapy)): −0.845; eGFR, change from baseline ([1]; week 12, Example 1 (monotherapy)): 1.208; eGFR, change from baseline ([1]; week 18, Example 1 (monotherapy)): 2.072; eGFR, change from baseline ([1]; week 24, Example 1 (monotherapy)): 2.371; Tmax (Pharmacokinetics (Tmax)): 1 to 2 h; Blood glucose-lowering effect compared to a placebo [2]: statistically significant blood glucose-lowering effect; Urinary glucose excretion (UGE) after administration ([3]; all renal function groups): increased; Change in eGFR ([3]; patient group with 30≤eGFR<60): eGFR reduction was confirmed; Reduction of proteinuria compared with other SGLT2 inhibitors ([4]; same dose groups (1 mg/kg)): most excellent effect in reducing proteinuria; TA score (tubular atrophy) ([4]; week 12): significant dose-dependent decrease in tubular atrophy; GS score (glomerulosclerosis) ([4]; week 12, all enavogliflozin-administered groups): trend toward a decrease in the GS score; Urinary albumin concentration (proteinuria) ([4]; weeks 4, 8 and 12): dose-dependent decrease in proteinuria
